This experiment deals with CD2F1 mice, L1210 leukemia ip, survival T/C. The experiment in a line: NCI In Vivo Anticancer Drug Screen. Data for tumor model L1210 Leukemia (intraperitoneal) in CD2F1 (CDF1) mice. The note with it: higher = longer survival. Put shortly: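 Transplantable tumor in mice; compound-treated vs vehicle-treated groups. Read-out = treated/control ratio of the measured endpoint.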

[1] abbreviates: endpoint: mean survival time, dose: 12.5 mg/kg/injection, schedule: Q01DX005 (ip), vehicle: water.
Where [2] appears, read: endpoint: mean survival time, dose: 25.0 mg/kg/injection, schedule: Q01DX005 (ip), vehicle: water.
Setting [3] is: endpoint: mean survival time, dose: 50.0 mg/kg/injection, schedule: Q01DX005 (ip), vehicle: water.
The mark [4] stands for this setting: endpoint: mean survival time, dose: 100.0 mg/kg/injection, schedule: Q01DX005 (ip), vehicle: water.
[5] abbreviates: endpoint: mean survival time, dose: 200.0 mg/kg/injection, schedule: Q01DX005 (ip), vehicle: water.
The mark [6] stands for this setting: endpoint: mean survival time, dose: 100.0 mg/kg/injection, schedule: Q01DX009 (ip), vehicle: saline with Tween-80.
Setting [7] is: endpoint: mean survival time, dose: 200.0 mg/kg/injection, schedule: Q01DX009 (ip), vehicle: saline with Tween-80.
Where [8] appears, read: endpoint: mean survival time, dose: 400.0 mg/kg/injection, schedule: Q01DX009 (ip), vehicle: saline with Tween-80.
[9] abbreviates: endpoint: mean survival time, dose: 100.0 mg/kg/injection, schedule: Q04DX003 (ip), vehicle: saline.
Where [10] appears, read: endpoint: mean survival time, dose: 200.0 mg/kg/injection, schedule: Q04DX003 (ip), vehicle: saline.
[11] abbreviates: endpoint: mean survival time, dose: 100.0 mg/kg/injection, schedule: Q04DX003 (ip), vehicle: saline with Tween-80.
[12] abbreviates: endpoint: mean survival time, dose: 200.0 mg/kg/injection, schedule: Q04DX003 (ip), vehicle: saline with Tween-80.
The mark [13] stands for this setting: endpoint: mean survival time, dose: 50.0 mg/kg/injection, schedule: Q01DX009 (ip), vehicle: water.
Where [14] appears, read: endpoint: mean survival time, dose: 50.0 mg/kg/injection, schedule: Q01DX009 (ip), vehicle: saline with Tween-80.
Where [15] appears, read: endpoint: mean survival time, dose: 400.0 mg/kg/injection, schedule: Q04DX003 (ip), vehicle: saline with Tween-80.

For 22 compounds, T/C results are on record in PubChem BioAssay AID256 (DTP/NCI, 2004).

“And” between values parts separate entries of the source, which are not always exact repeats. Identical values can stand only once. Inconclusive results and toxic doses are left out.

As for `Nc1nc(N)c2[nH]c(-c3ccccc3[N+](=O)[O-])nc2n1`, the T/C is 96 % of control under setting [1]; 89 % of control under setting [2]; 87 % of control under setting [3]; 96 % of control under setting [4]; 96 % of control under setting [5].

`CC(=O)Nc1cc([N+](=O)[O-])cc([N+](=O)[O-])c1O`: the T/C was 101 % of control (endpoint: mean survival time, dose: 100.0 mg/kg/injection, schedule: Q01DX001 (ip), vehicle: saline with Tween-80) and 98 % of control (endpoint: mean survival time, dose: 200.0 mg/kg/injection, schedule: Q01DX001 (ip), vehicle: saline with Tween-80).

For `COC(=O)Nc1nc2ccc(C(=O)c3cccs3)cc2[nH]1`, the T/C (endpoint: mean survival time, dose: 10.0 mg/kg/injection, schedule: Q04DX003 (ip), vehicle: Klucel (hydroxypropylcellulose) (HPC)) was 105 % of control; the T/C (endpoint: mean survival time, dose: 10.0 mg/kg/injection, schedule: Q04DX003 (ip), vehicle: other) was 107 % of control; the T/C (endpoint: mean survival time, dose: 20.0 mg/kg/injection, schedule: Q04DX003 (ip), vehicle: Klucel (hydroxypropylcellulose) (HPC)) was 110 % of control; the T/C (endpoint: mean survival time, dose: 40.0 mg/kg/injection, schedule: Q04DX003 (ip), vehicle: Klucel (hydroxypropylcellulose) (HPC)) was 120 % of control; the T/C (endpoint: mean survival time, dose: 40.0 mg/kg/injection, schedule: Q04DX003 (ip), vehicle: other) is 110 % of control; the T/C (endpoint: mean survival time, dose: 60.0 mg/kg/injection, schedule: Q04DX003 (ip), vehicle: saline) is 221 % of control. Moreover, the T/C reads like this: (endpoint: mean survival time, dose: 80.0 mg/kg/injection, schedule: Q04DX003 (ip), vehicle: Klucel (hydroxypropylcellulose) (HPC)) 98 % of control; (endpoint: mean survival time, dose: 90.0 mg/kg/injection, schedule: Q04DX003 (ip), vehicle: saline) 121 % of control.

As to `CCCC(CCC)(C(N)=O)C(=O)O`, the T/C was 97 % of control (endpoint: mean survival time, dose: 100.0 mg/kg/injection, schedule: Q01DX001 (ip), vehicle: saline); 97 % of control (endpoint: mean survival time, dose: 200.0 mg/kg/injection, schedule: Q01DX001 (ip), vehicle: saline); 94 % of control (endpoint: mean survival time, dose: 400.0 mg/kg/injection, schedule: Q01DX001 (ip), vehicle: saline).

With `CC(CNC(=O)C12CC3CC(CC(C3)C1)C2)NC(=O)C12CC3CC(CC(C3)C1)C2` (centres undefined), the T/C (endpoint: median survival time, dose: 12.5 mg/kg/injection, schedule: Q01DX005 (ip), vehicle: DMSO) was 101 % of control; the T/C (endpoint: median survival time, dose: 25.0 mg/kg/injection, schedule: Q01DX005 (ip), vehicle: DMSO) is 104 % of control; the T/C (endpoint: median survival time, dose: 50.0 mg/kg/injection, schedule: Q01DX005 (ip), vehicle: DMSO) was 101 % of control; the T/C (endpoint: median survival time, dose: 100.0 mg/kg/injection, schedule: Q01DX005 (ip), vehicle: DMSO) is 98 % of control; the T/C (endpoint: median survival time, dose: 200.0 mg/kg/injection, schedule: Q01DX005 (ip), vehicle: DMSO) is 101 % of control.

Regarding `COc1ccc(C(=O)c2ccccc2NC(C)=O)cc1`, the T/C is 98 % of control under setting [6], 101 % of control under setting [7] and 98 % of control under setting [8].

For `NC(CSS(=O)(=O)O)=NCCSS(=O)(=O)O`, the T/C by setting is: under setting [9], 97 % of control; under setting [10], 97 % of control.

Regarding `CCOC(=O)c1c(C)nc(C)c(C(=O)OCC)c1-c1ccc(N(C)C)cc1`, the T/C was 104 % of control under setting [11] and 98 % of control under setting [12].

Consider `NCC(=O)NCC(=O)OCCO`, for which the T/C is 97 % of control under setting [13]; 93 % of control (endpoint: mean survival time, dose: 100.0 mg/kg/injection, schedule: Q01DX009 (ip), vehicle: water); 91 % of control (endpoint: mean survival time, dose: 200.0 mg/kg/injection, schedule: Q01DX009 (ip), vehicle: water); 90 % of control (endpoint: mean survival time, dose: 400.0 mg/kg/injection, schedule: Q01DX009 (ip), vehicle: water).

Consider `O=C(O)/C=C/C(=O)Nc1ccc(Cl)cc1`, for which the T/C reads like this: under setting [6], 104 % of control; under setting [7], 89 % of control.

For the compound `O=c1[nH]cnc2c1nc(Br)n2C1OC(CO)C(O)C1O` (centres undefined), the T/C by setting is: (endpoint: mean survival time, dose: 12.5 mg/kg/injection, schedule: Q01DX005 (ip), vehicle: Klucel (hydroxypropylcellulose) (HPC)) 91 % of control; (endpoint: mean survival time, dose: 25.0 mg/kg/injection, schedule: Q01DX005 (ip), vehicle: Klucel (hydroxypropylcellulose) (HPC)) 89 % of control; (endpoint: mean survival time, dose: 50.0 mg/kg/injection, schedule: Q01DX005 (ip), vehicle: Klucel (hydroxypropylcellulose) (HPC)) 93 % of control; (endpoint: mean survival time, dose: 100.0 mg/kg/injection, schedule: Q01DX005 (ip), vehicle: Klucel (hydroxypropylcellulose) (HPC)) 88 % of control; (endpoint: mean survival time, dose: 200.0 mg/kg/injection, schedule: Q01DX005 (ip), vehicle: Klucel (hydroxypropylcellulose) (HPC)) 89 % of control.

Turning to `COC1=CC(=O)C(OC)=C(OC)C1=O`, the T/C runs as follows: (endpoint: mean survival time, dose: 3.12 mg/kg/injection, schedule: Q01DX009 (ip), vehicle: saline with Tween-80) 94 % of control; (endpoint: mean survival time, dose: 6.25 mg/kg/injection, schedule: Q01DX009 (ip), vehicle: saline with Tween-80) 97 % of control; (endpoint: mean survival time, dose: 12.5 mg/kg/injection, schedule: Q01DX009 (ip), vehicle: saline with Tween-80) 97 % of control; (endpoint: mean survival time, dose: 25.0 mg/kg/injection, schedule: Q01DX009 (ip), vehicle: saline with Tween-80) 100 % of control; under setting [14], 105 % of control.

For the compound `COc1ccc(Cc2nccc3cc(OC)c(OC)cc23)cc1OC`, the T/C (endpoint: mean survival time, dose: 9.4 mg/kg/injection, schedule: Q04DX003 (ip), vehicle: water) was 115 % of control; the T/C (endpoint: mean survival time, dose: 18.7 mg/kg/injection, schedule: Q04DX003 (ip), vehicle: water) was 93 % of control; the T/C (endpoint: mean survival time, dose: 37.5 mg/kg/injection, schedule: Q04DX003 (ip), vehicle: water) is 96 % of control; the T/C under setting [13] was 96 % of control.

As to `CCN(CC)Cc1cn(C2CC(O)C(CO)O2)c(=O)[nH]c1=O` (centres undefined), the T/C is 100 % of control under setting [1]; 104 % of control under setting [2]; 91 % of control under setting [3]; 100 % of control under setting [4]; 98 % of control under setting [5].

For `Cc1ccc(NC(=O)Oc2cc(C)c(Cl)cc2C)cc1C`, the T/C is, setting by setting: under setting [14], 100 % of control; under setting [6], 100 % of control; under setting [7], 92 % of control.

With `O=C(N/N=C/c1cccc([N+](=O)[O-])c1)c1ccccc1`, the T/C under setting [6] was 107 % of control, the T/C under setting [7] is 102 % of control and the T/C under setting [8] is 94 % of control.

Take `O=C1OCSc2ccccc21`: the T/C is 108 % of control (endpoint: mean survival time, dose: 25.0 mg/kg/injection, schedule: Q01DX009 (ip), vehicle: saline sonified); 102 % of control (endpoint: mean survival time, dose: 50.0 mg/kg/injection, schedule: Q01DX009 (ip), vehicle: saline sonified); 102 % of control (endpoint: mean survival time, dose: 100.0 mg/kg/injection, schedule: Q01DX009 (ip), vehicle: saline sonified); 100 % of control under setting [11]; 101 % of control under setting [12]; 97 % of control under setting [15].

Turning to `O=c1c2nccnc2nc2n1CCCCC2`, the T/C by setting is: (endpoint: mean survival time, dose: 75.0 mg/kg/injection, schedule: Q01DX001 (ip), vehicle: saline) 100 % of control; (endpoint: mean survival time, dose: 150.0 mg/kg/injection, schedule: Q01DX001 (ip), vehicle: saline) 103 % of control; (endpoint: mean survival time, dose: 300.0 mg/kg/injection, schedule: Q01DX001 (ip), vehicle: saline) 103 % of control.

As to `OC1c2ccccc2-c2ccc(Cl)cc21` (centres undefined), the T/C runs as follows: under setting [11], 94 % of control; under setting [12], 86 % of control; under setting [15], 96 % of control.

For `O=C(O)c1ccc(SSc2ccc(C(=O)O)cn2)nc1`, the T/C is 102 % of control (endpoint: mean survival time, dose: 100.0 mg/kg/injection, schedule: Q01DX009 (ip), vehicle: saline); 96 % of control (endpoint: mean survival time, dose: 200.0 mg/kg/injection, schedule: Q01DX009 (ip), vehicle: saline); 94 % of control (endpoint: mean survival time, dose: 400.0 mg/kg/injection, schedule: Q01DX009 (ip), vehicle: saline).

For the compound `FC(F)(F)c1ccc2c(c1)Nc1ccccc1S2`, the T/C is 96 % of control and 98 % of control (endpoint: mean survival time, dose: 12.5 mg/kg/injection, schedule: Q04DX003 (ip), vehicle: saline); 96 % of control and 101 % of control (endpoint: mean survival time, dose: 25.0 mg/kg/injection, schedule: Q04DX003 (ip), vehicle: saline); 101 % of control and 104 % of control (endpoint: mean survival time, dose: 50.0 mg/kg/injection, schedule: Q04DX003 (ip), vehicle: saline); 101 % of control and 104 % of control under setting [9]; 96 % of control and 98 % of control under setting [10].

For `CC/C=C(CC)\C(=C\CC)CC`, the T/C reads like this: under setting [14], 100 % of control; under setting [6], 100 % of control; under setting [7], 107 % of control.
